Source: the supplement of paper PMC10307832

Columns and labels:
Assay in all cases: relative viability (nuclei count vs DMSO), 5 days (fraction); higher = more cells survive
Temozolomide = compound: Cn1nnc2c(C(N)=O)ncn2c1=O [Temozolomide]
Procedure, shortened: (§1)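 In 1536-well plates, lung cancer cell lines rested overnight at 37 °C before five library-drug doses (not always all listed), √10 apart, were pinned onto vehicle-anchored plates. Nuclei were counted with MetaXpress from 4× Hoechst images taken after 5 days without medium change. Viability compares treated-well with vehicle-well nuclei as a median over plates, and plates needed control CV below 25% plus at least one doubling to pass.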

AZD5582 = compound: C[C@@H](C(=O)N[C@@H](C1CCCCC1)C(=O)N2CCC[C@H]2C(=O)N[C@@H]3[C@@H](CC4=CC=CC=C34)OCC#CC#CCO[C@@H]5CC6=CC=CC=C6[C@@H]5NC(=O)[C@@H]7CCCN7C(=O)[C@H](C8CCCCC8)NC(=O)[C@H](C)NC)NC [AZD5582]
Procedure, shortened: as §1

[1] = compound: Cn1nnc2c(C(N)=O)ncn2c1=O [Temozolomide] + Nc1nc2[nH]cc(CCc3ccc(C(=O)N[C@@H](CCC(=O)O)C(=O)O)cc3)c2c(=O)[nH]1 [Pemetrexed] (partner 0.2 µM)
Procedure, shortened: (§2)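 Lung cancer cell lines were pin-tool dosed in 1536-well plates on the day after seeding, with either a lone drug or a fixed anchor-drug dose plus five library-drug doses (not always all listed) in √10 steps. Nuclei were counted on 4× images after 5 days. Relative viability is the ratio of treated-well to vehicle-well nuclei counts, with each value a median of duplicate plates.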

AZD5582 + Alpelisib = compound: C[C@@H](C(=O)N[C@@H](C1CCCCC1)C(=O)N2CCC[C@H]2C(=O)N[C@@H]3[C@@H](CC4=CC=CC=C34)OCC#CC#CCO[C@@H]5CC6=CC=CC=C6[C@@H]5NC(=O)[C@@H]7CCCN7C(=O)[C@H](C8CCCCC8)NC(=O)[C@H](C)NC)NC [AZD5582] + Cc1nc(NC(=O)N2CCC[C@H]2C(N)=O)sc1-c1ccnc(C(C)(C)C(F)(F)F)c1 [Alpelisib] (partner 2 µM)
Procedure, shortened: as §2

| Cell Line | relative viability (Temozolomide; 0.2 µM) | relative viability (Temozolomide; 0.6325 µM) | relative viability (Temozolomide; 2 µM) | relative viability (Temozolomide; 6.325 µM) | relative viability (Temozolomide; 20 µM) | relative viability (AZD5582; 0.001581 µM) | relative viability (AZD5582; 0.005 µM) | relative viability (AZD5582; 0.01581 µM) | relative viability (AZD5582; 0.05 µM) | relative viability ([1]; first compound 0.2 µM) | relative viability ([1]; first compound 0.6325 µM) | relative viability ([1]; first compound 2 µM) | relative viability ([1]; first compound 6.325 µM) | relative viability ([1]; first compound 20 µM) | relative viability (AZD5582 + Alpelisib; first compound 0.001581 µM) | relative viability (AZD5582 + Alpelisib; first compound 0.005 µM) | relative viability (AZD5582 + Alpelisib; first compound 0.01581 µM) | relative viability (AZD5582 + Alpelisib; first compound 0.05 µM) |
| --- | --- | --- | --- | --- | --- | --- | --- | --- | --- | --- | --- | --- | --- | --- | --- | --- | --- | --- |
| NCI-H2009 | 1.05 | 1.01 | 1.05 | 0.923 | 1.06 | 0.916 | 1.09 | 0.943 | 0.988 | 1.08 | 1.06 | 1.05 | 1.08 | 1.04 | 1.12 | 1.15 | 1.17 | 1.18 |
| HCC-15 | 1.12 | 1.01 | 1 | 0.996 | 1.07 | 0.862 | 0.933 | 0.739 | 0.847 | 0.24 | 0.221 | 0.227 | 0.207 | 0.228 | 0.771 | 0.648 | 0.922 | 0.555 |
| NCI-H3122 | 1.02 | 1.03 | 1.06 | 0.945 | 0.97 | 0.938 | 1.02 | 1 | 0.265 | 0.187 | 0.205 | 0.188 | 0.196 | 0.193 | 0.774 | 0.858 | 0.836 | 0.307 |
| NCI-H838 | 0.948 | 1.02 | 1.02 | 0.928 | 0.986 | 0.895 | 1.09 | 0.785 | 0.975 | 0.247 | 0.256 | 0.254 | 0.252 | 0.233 | 0.89 | 0.97 | 0.907 | 1.18 |
| NCI-H1975 | 1.01 | 1.01 | 1.09 | 0.919 | 0.957 | 1 | 1.13 | 0.944 | 1.2 | 0.307 | 0.323 | 0.319 | 0.299 | 0.289 | 0.725 | 0.894 | 0.611 | 0.964 |
| NCI-H441 | 1.25 | 1.06 | 1.29 | 0.997 | 1.15 | 0.77 | 0.954 | 0.869 | 0.982 | 0.28 | 0.309 | 0.272 | 0.257 | 0.236 | 0.511 | 0.709 | 0.594 | 0.615 |
| NCI-H23 | 1.2 | 1.03 | 0.994 | 0.909 | 0.993 | 0.782 | 0.848 | 0.477 | 0.519 | 0.825 | 0.749 | 0.716 | 0.565 | 0.677 | 0.446 | 0.456 | 0.7 | 0.419 |
| HARA | 0.979 | 1.02 | 1.05 | 0.886 | 0.831 | 0.974 | 1.1 | 0.746 | 0.662 | 0.203 | 0.228 | 0.269 | 0.2 | 0.273 | 0.75 | 0.783 | 0.866 | 0.701 |
| ABC-1 | 1.07 | 0.925 | 1.08 | 0.958 | 1.02 | 0.898 | 1.03 | 0.767 | 0.936 |  |  |  |  |  | 1.17 | 1.15 | 1.07 | 1.03 |
| NCI-H522 | 0.842 | 0.985 | 1.02 | 0.998 | 0.915 | 0.841 | 1 | 0.957 | 0.795 | 0.765 | 0.972 | 1.27 | 0.984 | 0.804 |  |  |  |  |
| EBC-1 | 0.997 | 1.01 | 1.06 | 0.917 | 1.09 | 0.867 | 0.95 | 0.964 | 0.948 |  |  |  |  |  | 0.754 | 0.866 | 0.869 | 0.857 |
| ChaGo-K-1 | 1.06 | 0.983 | 1.08 | 0.933 | 0.928 | 0.978 | 1.02 | 0.971 | 0.975 | 0.258 | 0.256 | 0.263 | 0.257 | 0.246 |  |  |  |  |
| NCI-H1648 |  | 0.889 | 0.903 | 0.746 | 0.893 | 0.607 | 0.894 | 0.554 | 0.824 |  | 0.614 | 0.554 | 0.696 | 0.82 |  |  |  |  |
| NCI-H1299 | 1.03 | 1.04 | 1.07 | 1.03 | 1.03 | 1 | 1.02 | 1 | 0.991 |  |  |  |  |  | 1.01 | 1.11 | 1.07 | 1.03 |
| NCI-H1623 |  | 1.18 | 1.04 | 0.979 | 0.66 | 1.03 | 1.08 | 0.995 | 0.95 |  |  |  |  |  |  |  |  |  |
| SW 900 | 1.07 | 1.1 | 0.984 | 0.772 | 0.793 | 0.628 | 0.851 | 0.684 | 0.466 | 0.525 | 0.496 | 0.507 | 0.474 | 0.472 |  |  |  |  |
| A549 | 1.04 | 1.02 | 0.986 | 0.913 | 0.998 | 0.876 | 1.01 | 0.928 | 0.999 |  |  |  |  |  | 0.713 | 0.717 | 0.769 | 0.835 |
| NCI-H2342 | 0.827 | 0.991 | 1.06 | 1.03 | 0.912 | 0.938 | 1.01 | 0.917 | 1.07 | 0.653 | 0.86 | 0.914 | 0.708 | 0.769 |  |  |  |  |
| NCI-H727 | 0.83 | 0.923 | 1.13 | 0.798 | 0.805 | 1.02 | 1.01 | 0.858 | 0.979 |  |  |  |  |  | 0.578 | 0.627 | 0.441 | 0.556 |
| Calu-6 | 1.08 | 1 | 1.07 | 0.954 | 0.99 | 0.83 | 0.724 | 0.989 | 0.573 |  |  |  |  |  | 0.822 | 0.843 | 1.07 | 0.734 |
| IA-LM | 1.11 | 0.94 | 1 | 0.961 | 0.951 | 0.77 | 0.86 | 0.828 | 0.897 |  |  |  |  |  | 0.686 | 0.71 | 0.844 | 0.686 |
